Biological target: T1, GCNF LBD (Homo sapiens, UniProt Q15406)
T1 construct: Human GCNF (NR6A1) LBD (residues 248-480); made in house; host or cells: E. coli BL(21) DE3
T1 sequence (Q15406 248-480): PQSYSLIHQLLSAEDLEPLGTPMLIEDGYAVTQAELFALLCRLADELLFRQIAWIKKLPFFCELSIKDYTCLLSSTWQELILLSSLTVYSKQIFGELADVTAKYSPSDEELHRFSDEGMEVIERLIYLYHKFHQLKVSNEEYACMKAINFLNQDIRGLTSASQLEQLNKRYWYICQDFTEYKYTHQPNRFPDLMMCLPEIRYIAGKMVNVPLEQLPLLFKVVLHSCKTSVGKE
Assay: Differential scanning fluorimetry (DSF) of GCNF LBD
Format: binding
Conditions: additional ligand screening
Description: DSF Assay. GCNF LBD (5 μM) were mixed with 1× Sypro orange (Invitrogen) in DSF buffer (50 mM HEPES, 50 mM KCl, 5 mM TCEP, 0.5 mM EDTA, pH 7.5). Test compounds was added at 1:1 molar equivalence as protein or replaced with DMSO control. Ten microliters (10 μL)×5 replicates for each sample were plated on 384-well PCR microplate. No protein control and no ligand references were also run simultaneously in 5 replicates on the same plate. A total of 450 compounds (Life Chemicals) previously selected from a nuclear-receptor-biased library targeting REV-ERB were analyzed. Thermal stability was assessed on a Quantstudio 6 instrument (Biosystems) by ramping the temperature from 25° C. to 95° C. at 0.05° C./s and protein melt shifts were subsequently quantified by Boltzmann-derived melting temperature (Tm) using the Protein Thermal Shift (ThermoFisher) software. Positive hits were identified when a thermal shift (ΔTm) of at least 2° C. was observed.
For the DSF ligand titration assay, ligands 30, 34 and 80 were titrated against 5 μM GCNF LBD with a ligand concentration series of 30, 20, 13, 9, 6, 4, 2.6, 1.7 and 0 μM from a 20 mM DMSO stock solution. DSF assay and analysis was then performed as described above. All DSF data were reported as mean±SEM.

| Structure (SMILES) | change in Tm of GCNF [°C] |
| --- | --- |
| COC(=O)COc1cccc2c(=O)n(CC(=O)NCCc3ccc(OC)c(OC)c3)ccc12 [R9] | 0.8 |
| CCOC(=O)C(C)Oc1cccc2c(=O)n(CC(=O)Nc3c(C)cc(C)cc3C)ccc12 (stereo not drawn) [R5] | 1.6 |
| CC(=O)Nc1ccc(NCC(O)Cn2c3ccccc3n3c(=O)cc(C)c(C#N)c23)cc1 (stereo not drawn) [U7] | 1.0 |
| O=C1CCCC2=C1C(c1ccc(O)cc1)C1=C(CCCC1=O)O2 [U1] | 0.9 |
| COc1ccc(NC(=O)N2CCC3(CC2)N=C(SCc2ccccc2)C(c2ccccc2)=N3)cc1OC [U2] | 2.3 |
| CCCCCn1c(SCC(=O)CC(=O)OCC)nc2cc(C(=O)NCc3ccco3)ccc2c1=O [R12] | 0.8 |

Source: patent US12478628B2, “Germ cell nuclear factor ligands and methods of use thereof” (Saint Louis University, priority 2020, dated 2025)
